The values that follow come from patent US7566712B2, “Biaryl piperazinyl-pyridine analogues” (Neurogen Corporation, priority 2003, dated 2009).

The target in the first assay is T1, human capsaicin receptor (Homo sapiens, UniProt Q8NER1).
T1 construct: pBK-CMV expression construct encoding the full length human capsaicin receptor; expressed in transfected cells
T1 sequence (Q8NER1 whole entry): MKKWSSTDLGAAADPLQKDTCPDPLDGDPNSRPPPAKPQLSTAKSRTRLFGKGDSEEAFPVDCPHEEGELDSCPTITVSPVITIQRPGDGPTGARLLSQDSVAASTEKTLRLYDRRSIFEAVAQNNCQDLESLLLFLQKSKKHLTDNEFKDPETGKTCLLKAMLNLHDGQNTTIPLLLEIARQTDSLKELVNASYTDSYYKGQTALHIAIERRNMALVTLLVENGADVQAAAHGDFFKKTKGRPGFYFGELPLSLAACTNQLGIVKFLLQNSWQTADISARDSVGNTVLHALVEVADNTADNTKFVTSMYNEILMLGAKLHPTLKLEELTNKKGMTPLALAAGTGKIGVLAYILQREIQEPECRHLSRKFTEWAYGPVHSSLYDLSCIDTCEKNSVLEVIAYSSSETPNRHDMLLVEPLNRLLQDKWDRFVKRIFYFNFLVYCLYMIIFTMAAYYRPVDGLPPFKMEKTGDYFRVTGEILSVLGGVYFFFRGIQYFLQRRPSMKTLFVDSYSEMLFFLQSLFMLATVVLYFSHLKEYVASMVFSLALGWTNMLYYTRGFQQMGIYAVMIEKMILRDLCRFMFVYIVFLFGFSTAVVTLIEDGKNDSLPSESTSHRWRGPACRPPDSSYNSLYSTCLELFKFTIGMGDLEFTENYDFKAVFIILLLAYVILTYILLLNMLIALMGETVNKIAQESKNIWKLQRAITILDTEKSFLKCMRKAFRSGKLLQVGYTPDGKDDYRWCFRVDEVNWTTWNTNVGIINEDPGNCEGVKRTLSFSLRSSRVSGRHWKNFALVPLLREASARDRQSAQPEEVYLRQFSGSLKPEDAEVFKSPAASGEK
As to the kind of experiment: Calcium mobilization assay, determination of antagonist activity (Example 6). The class given is cell-based. To be noted: Table II; IC50 determined as described in Example 6. The method in brief:
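HEK293 clonal lines stably expressing full-length human capsaicin receptor, loaded with Fluo-3 AM in KRH buffer pH 7.4, 1–2 h at 37 °C. Compounds (1–5 μM final) preincubated 0.5–6 h at room temperature, then capsaicin at its EC50 added. FLIPR/Fluoroskan calcium signal; IC50 as 50% decrease of capsaicin response.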
As to `Cc1ccc(-c2cc(N3CCN(c4ncccc4Cl)C[C@H]3C)nc(N3CCOCC3)n2)cc1C` [Example 508, 4-[4-[(2R)-4-(3-chloropyridin-2-yl)-2-methylpiperazin-1-yl]-6-(3,4-dimethylphenyl)pyrimidin-2-yl]morpholine], the IC50 was not above 1 µM.

The same assay, now with this note: Table II; determined as described in Example 6 (antagonist activity); "*" = 1 micromolar or less.
In the case of `C[C@@H]1CN(c2ncccc2Cl)CCN1c1cc(-c2ccc(Cl)c(F)c2)nc(N2CCOCC2)n1` [Example 835, 4-{4-(4-chloro-3-fluorophenyl)-6-[(2R)-4-(3-chloropyridin-2-yl)-2-methylpiperazin-1-yl]pyrimidin-2-yl}morpholine], the IC50 is not above 1 µM.
On to `CC(=O)c1nc(-c2ccc(F)c(F)c2)cc(N2CCN(c3ncccc3C(F)(F)F)CC2)n1` [Example 862, 1-(4-(3,4-difluorophenyl)-6-{4-[3-(trifluoromethyl)pyridin-2-yl]piperazin-1-yl}pyrimidin-2-yl)ethanone], for which the 50% inhibitory concentration (IC50) is not above 1 µM.

Staying with this assay, now noted: determined as described in Example 6 (calcium mobilization, antagonist activity); Table II.
With `FC(F)(F)c1cccnc1N1CCN(c2cc(-c3ccccc3)nc(N3CCOCC3)n2)CC1` [Example 574, 4-(4-phenyl-6-{4-[3-(trifluoromethyl)pyridin-2-yl]piperazin-1-yl}pyrimidin-2-yl)morpholine], the IC50 is not above 1 µM.
On to `Cc1cc(-c2cc(N3CCN(c4ncccc4C(F)(F)F)CC3)nc(N3CCN(C(C)C)CC3)n2)ccc1F` [Example 716, 4-(4-fluoro-3-methylphenyl)-2-(4-isopropylpiperazin-1-yl)-6-{4-[3-(trifluoromethyl)pyridin-2-yl]piperazin-1-yl}pyrimidine], for which the IC50 is not above 1 µM.
Regarding `CCN(c1nc(-c2ccc(F)c(Cl)c2)cc(N2CCN(c3ncccc3C(F)(F)F)CC2)n1)C(C)C` [Example 601, 4-(3-chloro-4-fluorophenyl)-N-ethyl-N-isopropyl-6-{4-[3-(trifluoromethyl)pyridin-2-yl]piperazin-1-yl}pyrimidin-2-amine], the half-maximal inhibitory concentration (IC50) was not above 1 µM.
For the compound `OC[C@H]1CCCN1c1nc(-c2ccc(F)c(Cl)c2)cc(N2CCN(c3ncccc3C(F)(F)F)CC2)n1` [Example 610, [(2R)-1-(4-(3-chloro-4-fluorophenyl)-6-{4-[3-(trifluoromethyl)pyridin-2-yl]piperazin-1-yl}pyrimidin-2-yl)pyrrolidin-2-yl]methanol], the 50% inhibitory concentration (IC50) was not above 1 µM.
As to `Cc1cc(-c2cc(N3CCN(c4ncccc4C(F)(F)F)C[C@H]3C)nc(N3CCCCC3)n2)ccc1F` [Example 759, 4-(4-fluoro-3-methylphenyl)-6-{(2R)-2-methyl-4-[3-(trifluoromethyl)pyridin-2-yl]piperazin-1-yl}-2-piperidin-1-ylpyrimidine], the IC50 was not above 1 µM.
As to `Cc1cc(-c2cc(N3CCN(c4ncccc4Cl)C[C@H]3C)nc(N3CCCC3C)n2)ccc1F` (stereo partly drawn) [Example 719, 4-[(2R)-4-(3-chloropyridin-2-yl)-2-methylpiperazin-1-yl]-6-(4-fluoro-3-methylphenyl)-2-(2-methylpyrrolidin-1-yl)pyrimidine], the half-inhibitory concentration (IC50) was not above 1 µM.
As for `Fc1ccc(-c2cc(N3CCN(c4ncccc4Cl)CC3)nc(N3CCCC3)n2)cc1Cl` [Example 713, 4-(3-chloro-4-fluorophenyl)-6-[4-(3-chloropyridin-2-yl)piperazin-1-yl]-2-pyrrolidin-1-ylpyrimidine], the IC50 is not above 1 µM.
Consider `CC1CCC(C)N1c1nc(-c2ccc(F)c(Cl)c2)cc(N2CCN(c3ncccc3C(F)(F)F)CC2)n1` (stereo not drawn) [Example 669, 4-(3-chloro-4-fluorophenyl)-2-(2,5-dimethylpyrrolidin-1-yl)-6-{4-[3-(trifluoromethyl)pyridin-2-yl]piperazin-1-yl}pyrimidine], for which the 50% inhibitory concentration (IC50) is not above 1 µM.
For `CC(=O)N(C)c1nc(-c2ccc(F)c(Cl)c2)cc(N2CCN(c3ncccc3C(F)(F)F)CC2)n1` [Example 679, N-(4-(3-chloro-4-fluorophenyl)-6-{4-[3-(trifluoromethyl)pyridin-2-yl]piperazin-1-yl}pyrimidin-2-yl)-N-methylacetamide], the IC50 was not above 1 µM.
